In the Kinase Knowledgebase extract (Sharma et al. 2016):

Biological target: MAPK14 (UniProt Q16539)
Assay: Inhibition of MAPK14 Kinase Activity

MAPK14, sequence (Q16539 whole entry, looked up): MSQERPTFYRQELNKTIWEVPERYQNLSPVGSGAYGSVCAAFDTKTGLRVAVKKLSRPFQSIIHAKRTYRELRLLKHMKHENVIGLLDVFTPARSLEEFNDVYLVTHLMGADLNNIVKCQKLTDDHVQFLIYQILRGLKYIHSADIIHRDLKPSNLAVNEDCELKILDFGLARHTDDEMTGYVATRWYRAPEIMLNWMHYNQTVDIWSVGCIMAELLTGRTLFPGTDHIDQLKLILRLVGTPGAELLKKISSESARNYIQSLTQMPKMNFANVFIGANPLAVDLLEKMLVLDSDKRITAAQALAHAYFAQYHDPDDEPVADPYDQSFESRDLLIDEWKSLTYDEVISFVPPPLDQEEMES

| Compound | IC50 |
| --- | --- |
| Cc1cccc(-c2nn3c(c2-c2ccc4c(c2)OCO4)CCC3)n1 | < 20 µM |
| Cc1cccc(-c2nn3c(c2-c2ccnc4cc(N)ccc24)CCC3)n1 | < 20 µM |
| Cc1cccc(-c2nn3c(c2-c2ccnc4ccc(C(=O)O)cc24)CCC3)n1 | < 20 µM |
| Fc1ccc(-c2nn3c(c2-c2ccnc4ccccc24)CCC3)cc1 | < 20 µM |
| O=C(NCCc1c[nH]cn1)c1ccc2c(-c3c(-c4ccccn4)nn4c3CCC4)ccnc2c1 | < 20 µM |
| Cc1cccc(-c2nn3c(c2-c2ccnc4ccc(-c5ccc(F)cc5)cc24)CCC3)n1 | < 20 µM |
| c1ccc(-c2nn3c(c2-c2ccc4ccccc4c2)CCC3)nc1 | < 20 µM |
| Cc1cccc(-c2nn3c(c2-c2ccc(F)cc2)CC[C@@H]3CC#N)n1 | < 20 µM |
| CN(C)CC(=O)Nc1ccc2c(-c3c(-c4ccccn4)nn4c3CCC4)ccnc2c1 | < 20 µM |

Now from value to compound:

| IC50 | Compound |
| --- | --- |
| < 20 µM | OCCCSc1ccc2c(-c3c(-c4ccccn4)nn4c3CCC4)ccnc2c1 |
| < 20 µM | CNC(=O)c1ccc2c(-c3c(-c4ccccn4)nn4c3CCC4)ccnc2c1 |
| < 20 µM | COC(=O)c1ccc2c(-c3c(-c4ccccn4)nn4c3CCC4)ccnc2c1 |
| < 20 µM | c1ccc(-c2nn3c(c2-c2ccnc4cc(OCCCn5ccnc5)ccc24)CCC3)nc1 |
| < 20 µM | CN1CCN(CCCOc2ccc3c(-c4c(-c5ccccn5)nn5c4CCC5)ccnc3c2)CC1 |
| < 20 µM | COc1ccc2c(-c3c(-c4ccccn4)nn4c3CCC4)ccnc2c1 |
| < 20 µM | CSc1ccc2nccc(-c3c(-c4ccccn4)nn4c3CCC4)c2c1 |
